The target in this assay is T1, human lysophosphatidic acid receptor 1 (LPAR1) (Homo sapiens, UniProt Q92633).
T1 construct: host or cells: CHO-K1 (Chinese hamster ovary K1) cells, CHO-K1/LPA1R, kept under hygromycin B selection
Kind of assay: FLIPR test of antagonist properties: inhibition of LPA-induced intracellular calcium elevation in CHO-K1 cells expressing hLPAR1. The class given is cell-based. The note with it: FLIPR calcium assay, CHO-K1/LPA1R cells, LPA at EC80. How it is done: The antagonist properties of the compounds of the present disclosure were tested using the FLIPR (fluorometric imaging plate reader) method. The compounds are inhibitors of intracellular calcium elevation induced by activation of hLPARI (human lysophosphatidic acid receptor 1) expressed in CHO-K1 cells (Chinese hamster ovary K1 cells, HDB).
2.1. Reaction buffer: HBSS+20 mM HEPES+0.1% fatty acid-free BSA+0.001% F-127
2.2. 50×Red dye: (a red dye for blocking background signals in cells) prepared by: weighing out 4 g of tartrazine and 10.2 g of acid red and dissolving them in 100 mL of H2O.
2.3. Fluo-8 staining mixture: 4 mL of reaction buffer, 32 μL of fluo-8, 320 μL of 50×Red dye, and 40 μL of probenecid.
3.1. LPA: dissolved in DPBS (containing 0.1% fatty acid-free BSA) to prepare a 0.8 μM stock solution, and the solution was aliquoted and stored at −20° C.
3.2. Test compound preparation: The test compounds were dissolved in DMSO to prepare 10 mM stock solutions, and the solutions were stored at −20° C. In the experiment, the compounds were first gradient-diluted with DMSO (initial concentration of 50 μM, 3-fold dilution, 10 points) to prepare 200×compound solutions. The compound solutions were then diluted with reaction buffer to give 5×compound solutions, and the solutions were transferred to a 384-well plate (Cat. No. 6008590) using Bravo.
4.1. CHO-K1/LPA1R cells were cultured in a cell culture medium (F-12+10% FBS+400 μg/mL hygromycin B).
4.2. When the cell confluence reached 80%, the cells were digested with 0.25% pancreatin.
4.3. When the cells became round, the digestion was stopped with the medium F-12 (10% FBS), and the cells were counted. Then the cell culture was diluted with F-12 (10% FBS) to give a cell suspension with a density of 6.7×10^5 cells/mL.
4.4. The cell suspension was added to a 384-well black cell culture plate at 30 µL/well using a Multidrop auto-dispenser, and the plate was incubated in a 37° C., 5% CO2 incubator for 20-24 h. The medium was changed to a serum-free F-12 medium, and the cells were starved for 24 h.
4.5. Dose experiment for testing LPA. Gradient dilutions of 6×LPA solution (initial concentration of 60 μM, 3-fold dilution, 10 points) were prepared with reaction buffer. The medium in the 384-well black cell culture plate was discarded and changed to reaction buffer. 10 μL of 5% DMSO reaction buffer was added, and 10 μL of Fluo-8 staining mixture was then added. The plate was incubated in the dark in a 37° C., 5% CO2 incubator for 0.5 h.
4.6. FLIPR was correspondingly programmed, the 6×LPA gradient solutions were added, and readings were taken. Two-minute data were collected.
4.7. A reaction curve was obtained from the numerical values of LPA, and the concentration of LPA at EC80 was calculated. A 6×LPA solution was prepared in a 384-well plate (Cat. No. 6008590), and HPE and ZPE were added to corresponding wells. HPE (one hundred per cent effect) was 60 μM LPA, and ZPE (zero per cent effect) was reaction buffer.
4.8. Testing of compounds. The medium in the 384-well black cell culture plate was discarded and changed to reaction buffer. 10 μL of 5×compound solution was transferred using Bravo, and then 10 μL of Fluo-8 staining mixture was added immediately. The plate was incubated in the dark in a 37° C., 5% CO2 incubator for 0.5 h.
4.9. FLIPR was correspondingly programmed, the 6×LPA solution was added, and readings were taken. Two-minute data were collected.
4.10. Finally, the output fluorescence counts were analyzed, and IC50 was calculated for the compounds.
A general note: A change in cytosolic calcium serves as a functional read-out for many receptors and channels.

This is an account of results in US20240317725A1, “LPA1 SMALL MOLECULE ANTAGONIST” (TUOJIE BIOTECH (SHANGHAI) CO., LTD., priority 2021, published 2024).

The structures appear in SMILES notation. A value given as a limit tells only on which side of the number the result lay.

T1 sequence (Q92633 whole entry): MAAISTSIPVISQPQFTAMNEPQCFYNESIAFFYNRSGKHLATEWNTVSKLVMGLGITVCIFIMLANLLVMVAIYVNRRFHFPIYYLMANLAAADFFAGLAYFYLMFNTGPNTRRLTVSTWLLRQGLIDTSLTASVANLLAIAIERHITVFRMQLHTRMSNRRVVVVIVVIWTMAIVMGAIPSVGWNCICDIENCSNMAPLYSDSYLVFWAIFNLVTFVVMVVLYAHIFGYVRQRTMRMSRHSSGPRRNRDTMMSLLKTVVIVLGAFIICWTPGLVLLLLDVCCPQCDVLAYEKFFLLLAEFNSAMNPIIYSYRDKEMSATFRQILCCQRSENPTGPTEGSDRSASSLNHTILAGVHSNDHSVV

Broadly, the IC50 is the point on the concentration scale where inhibition reaches its midpoint. Turning to `Cc1nc(-c2nnn(C)c2COc2nccc(C(F)(F)F)n2)ccc1OC1CC2CCC(C(=O)O)C2C1` (single isomer, unassigned) [Compound 1-P1, 5-((2-Methyl-6-(1-methyl-5-(((4-(trifluoromethyl)pyrimidin-2-yl)oxy)methyl)-1H-1,2,3-triazol-4-yl)pyridin-3-yl)oxy)octahydropentalene-1-carboxylic acid], the concentration for half-maximal inhibition (IC50) was found to be 0.0133 µM.

For `Cc1nc(-c2nnn(C)c2COc2nccc(C(F)(F)F)n2)ccc1OC1CC2CCC(C(=O)O)C2C1` (single isomer, unassigned) [Compound 1-P2, 5-((2-Methyl-6-(1-methyl-5-(((4-(trifluoromethyl)pyrimidin-2-yl)oxy)methyl)-1H-1,2,3-triazol-4-yl)pyridin-3-yl)oxy)octahydropentalene-1-carboxylic acid], the IC50 was 0.659 µM. The same measure for `Cc1nc(-c2nnn(C)c2COc2noc(C3CC3)n2)ccc1OC1CC2CCC(C(=O)O)C2C1` (single isomer, unassigned) [Compound 2-P1, 5-((6-(5-(((5-Cyclopropyl-1,2,4-oxadiazol-3-yl)oxy)methyl)-1-methyl-1H-1,2,3-triazol-4-yl)-2-methylpyridin-3-yl)oxy)octahydropentalene-1-carboxylic acid]: 0.026 µM. Consider `Cc1nc(-c2nnn(C)c2COc2noc(C3CC3)n2)ccc1OC1CC2CCC(C(=O)O)C2C1` (single isomer, unassigned) [Compound 2-P2, 5-((6-(5-(((5-Cyclopropyl-1,2,4-oxadiazol-3-yl)oxy)methyl)-1-methyl-1H-1,2,3-triazol-4-yl)-2-methylpyridin-3-yl)oxy)octahydropentalene-1-carboxylic acid], for which the IC50 was found to be 2.69 µM. In the case of `COCc1ccnc(OCc2c(-c3ccc(OC4CC5CCC(C(=O)O)C5C4)c(C)n3)nnn2C)n1` (single isomer, unassigned) [Compound 3-P1, 5-((6-(5-(((4-(Methoxymethyl)pyrimidin-2-yl)oxy)methyl)-1-methyl-1H-1,2,3-triazol-4-yl)-2-methylpyridin-3-yl)oxy)octahydropentalene-1-carboxylic acid], the IC50 was 0.0087 µM. The same measure for `COCc1ccnc(OCc2c(-c3ccc(OC4CC5CCC(C(=O)O)C5C4)c(C)n3)nnn2C)n1` (single isomer, unassigned) [Compound 3-P2, 5-((6-(5-(((4-(Methoxymethyl)pyrimidin-2-yl)oxy)methyl)-1-methyl-1H-1,2,3-triazol-4-yl)-2-methylpyridin-3-yl)oxy)octahydropentalene-1-carboxylic acid]: 1.38 µM; for `CCc1cc(OCc2c(-c3ccc(OC4CC5CCC(C(=O)O)C5C4)c(C)n3)nnn2C)ncn1` (single isomer, unassigned) [Compound 4-P1, 5-((6-(5-(((6-Ethylpyrimidin-4-yl)oxy)methyl)-1-methyl-1H-1,2,3-triazol-4-yl)-2-methylpyridin-3-yl)oxy)octahydropentalene-1-carboxylic acid]: 0.746 µM. In the case of `CCc1cc(OCc2c(-c3ccc(OC4CC5CCC(C(=O)O)C5C4)c(C)n3)nnn2C)ncn1` (single isomer, unassigned) [Compound 4-P2, 5-((6-(5-(((6-Ethylpyrimidin-4-yl)oxy)methyl)-1-methyl-1H-1,2,3-triazol-4-yl)-2-methylpyridin-3-yl)oxy)octahydropentalene-1-carboxylic acid], the IC50 was determined as 0.0358 µM. The result for `COCc1ccnc(OCc2c(-c3ccc(OC4CC5CCC(F)(C(=O)O)C5C4)c(C)n3)nnn2C)n1` (single isomer, unassigned) [Compound 5-P1, 1-Fluoro-5-((6-(5-(((4-(methoxymethyl)pyrimidin-2-yl)oxy)methyl)-1-methyl-1H-1,2,3-triazol-4-yl)-2-methylpyridin-3-yl)oxy)octahydropentalene-1-carboxylic acid] reads 0.0156 µM; that for `COCc1ccnc(OCc2c(-c3ccc(OC4CC5CCC(F)(C(=O)O)C5C4)c(C)n3)nnn2C)n1` (single isomer, unassigned) [Compound 5-P2, 1-Fluoro-5-((6-(5-(((4-(methoxymethyl)pyrimidin-2-yl)oxy)methyl)-1-methyl-1H-1,2,3-triazol-4-yl)-2-methylpyridin-3-yl)oxy)octahydropentalene-1-carboxylic acid], 0.917 µM. The result for `Cc1nc(-c2nnn(C)c2COc2nccc(O[C@@H]3CCOC3)n2)ccc1OC1CC2CCC(C(=O)O)C2C1` (single isomer, unassigned) [Compound 8-P1] reads 0.028 µM; that for `Cc1nc(-c2nnn(C)c2COc2nccc(O[C@@H]3CCOC3)n2)ccc1OC1CC2CCC(C(=O)O)C2C1` (single isomer, unassigned) [Compound 8-P2], 0.502 µM; that for `Cc1nc(-c2nnn(C)c2COc2nccc(O[C@H]3CCOC3)n2)ccc1OC1CC2CCC(C(=O)O)C2C1` (single isomer, unassigned) [Compound 9-P1], 0.0334 µM.

Regarding `Cc1nc(-c2nnn(C)c2COc2nccc(O[C@H]3CCOC3)n2)ccc1OC1CC2CCC(C(=O)O)C2C1` (single isomer, unassigned) [Compound 9-P2], the IC50 is 0.853 µM.

As for `Cc1nc(-c2nnn(C)c2COc2nccc(C(C)(C)O)n2)ccc1OC1CC2CCC(C(=O)O)C2C1` (single isomer, unassigned) [Compound 10-P1, 5-((6-(5-(((4-(2-Hydroxypropan-2-yl)pyrimidin-2-yl)oxy)methyl)-1-methyl-1H-1,2,3-triazol-4-yl)-2-methylpyridin-3-yl)oxy)octahydropentalene-1-carboxylic acid], the half-inhibitory concentration (IC50) worked out at 0.0887 µM. The result for `Cc1nc(-c2nnn(C)c2COc2nccc(C(C)(C)O)n2)ccc1OC1CC2CCC(C(=O)O)C2C1` (single isomer, unassigned) [Compound 10-P2, 5-((6-(5-(((4-(2-Hydroxypropan-2-yl)pyrimidin-2-yl)oxy)methyl)-1-methyl-1H-1,2,3-triazol-4-yl)-2-methylpyridin-3-yl)oxy)octahydropentalene-1-carboxylic acid] reads 1.86 µM; that for `COc1ccnc(OCc2c(-c3ccc(OC4CC5CCC(C(=O)O)C5C4)c(C)n3)nnn2C)n1` (single isomer, unassigned) [Compound 11-P1, 5-((6-(5-(((4-Methoxypyrimidin-2-yl)oxy)methyl)-1-methyl-1H-1,2,3-triazol-4-yl)-2-methylpyridin-3-yl)oxy)octahydropentalene-1-carboxylic acid], over 10 µM. The same measure for `COc1ccnc(OCc2c(-c3ccc(OC4CC5CCC(C(=O)O)C5C4)c(C)n3)nnn2C)n1` (single isomer, unassigned) [Compound 11-P2, 5-((6-(5-(((4-Methoxypyrimidin-2-yl)oxy)methyl)-1-methyl-1H-1,2,3-triazol-4-yl)-2-methylpyridin-3-yl)oxy)octahydropentalene-1-carboxylic acid]: 0.0506 µM. The same measure for `CCOCc1ccnc(OCc2c(-c3ccc(OC4CC5CCC(C(=O)O)C5C4)c(C)n3)nnn2C)n1` (single isomer, unassigned) [Compound 13-P1, 5-((6-(5-(((4-(Ethoxymethyl)pyrimidin-2-yl)oxy)methyl)-1-methyl-1H-1,2,3-triazol-4-yl)-2-methylpyridin-3-yl)oxy)octahydropentalene-1-carboxylic acid]: 1.09 µM.
